According to US20240383870A1, “HETEROCYCLIC ALDEHYDE TRAPPING COMPOUNDS AND USES THEREOF” (Aldeyra Therapeutics, Inc., priority 2021, published 2024):

How the values were obtained:
Assay type in all cases: in vivo
Settings in all cases: 200 mpk PO; LPS-challenged mice, plasma at 6.5 h; unpaired t-test vs vehicle
[1] = test system: IL-15; assay: Acute LPS-induced sepsis in C57BL/6 mice: IL-15 cytokine detection assay
[2] = test system: eotaxin; assay: Acute LPS-induced sepsis in C57BL/6 mice: eotaxin cytokine detection assay
[3] = test system: MCP-1(CCL2); assay: Acute LPS-induced sepsis in C57BL/6 mice: MCP-1(CCL2) cytokine detection assay
[4] = test system: M-CSF (CSF1); assay: Acute LPS-induced sepsis in C57BL/6 mice: M-CSF (CSF1) cytokine detection assay
Excerpt: FIG. 24 is a graph showing the results of an M-CSF (CSF1) cytokine detection assay in samples collected from mouse subjects after administration of compounds of the present disclosure. M-CSF causes hematopoietic stem cells to differentiate into macrophages.
(§1) The primary objective of this study was to collect plasma samples of lipopolysaccharide (LPS) challenged C57BL/6 mice after dose of test compounds to provide a cytokine profile as impacted by prophylactic treatments. This study models acute sepsis, which is a systemic inflammatory syndrome initiated by Gram-negative and Gram-positive bacteria and fungi which infect the lungs, abdomen, bloodstream, and renal or genitourinary tracts. Sepsis patients ultimately die of multiorgan failure which is caused by extensive tissue hypo-oxygenation due to ongoing microvascular leakage, disseminated intravascular coagulation, compromised energy production, and metabolic alterations. Sepsis is characterized by an early systemic inflammatory response phase featuring symptoms, such as tachycardia, fever, hyperventilation, and activation of the complement and coagulation cascades. However, it is now appreciated that a compensatory anti-inflammatory response phase follows, characterized by neuroendocrine-mediated immunosuppression. Since these processes are the result of interaction between cells of inflammation and organs, investigation of the treatment of this syndrome requires the use of intact animal models. The use of ten mice per group allows useful statistical modelling of the results.
(§2) For the data shown in Table 2A, 103 mice (female, 18-22 gram, C57BL/6) were purchased from ENVIGO. The mice were housed in 20 cages of 5 mice per cage with 1 cage of 3 mice as extra. The cages had filter tops and autoclaved bedding, and the animals were placed in quarantine with daily inspection. The treatment groups are detailed in Table 2A below. 10 mice were included in each group. The mice were dosed by oral gavage (PO) at 10 ml/kg as per the table below. MC=methyl cellulose.
as §2, with “2B, 185” for “2A, 103”, “37” for “20”, “cage.” for “cage with 1 cage of 3 mice as extra.”, “2B” for “2A”, “(P0)” for “(PO)”
(§3) At T=0 h, the mice were dosed with one of the test compounds as described in the above table.
(§4) At T=0.5 h, the mice were injected IP with 1.5 mg/kg […] (Sigma).
(§5) At T=6.5 h, all mice were anesthetized and exsanguinated into pre-chilled EDTA-treated tubes. The blood was processed to plasma which was stored in labeled 0.5 polypropylene snap-cap tubes (0.5 mL Eppendorf Safe-Lock Tubes (Fisher Scientific) at −80° C.
(§6) Preparation of vehicle: 1.0 gram of methyl cellulose (Sigma) was dissolved in 200 mL of water (USP purified) to make a solution of 0.5% methyl cellulose in water. Preparation of LPS solution: 6 mg of LPS (from Escherichia Coli 055:B5, Cat #L2880, Sigma Lot #057m4013) was dissolved in 20 ml of saline to give a LPS solution of 0.3 mg/ml. All mice were injected with 5 ml/kg (1.5 mg/kg) at the scheduled time by intraperitoneal injection.
(§7) A 32-plex cytokine panel was obtained from Eve Technologies. Each cytokine was assessed based against a 7 point curve range in duplicate. The average of the two replicate analyses was used for statistics. Unpaired t-tests were performed using Excel™ contrasting vehicle against each treatment group. One star indicates P<0.05. Two stars indicates P<0.01. Three stars indicates P<0.001. Four stars indicates P<0.0001. Most, but not all, statistically significant results are indicated with star(s).

[5] = test system: KC; assay: Acute LPS-induced sepsis in C57BL/6 mice: KC cytokine detection assay
Excerpt: FIG. 20 is a graph showing the results of a KC cytokine detection assay in samples collected from mouse subjects after administration of compounds of the present disclosure.
as §1, §2
as §2, with “2B, 185” for “2A, 103”, “37” for “20”, “cage.” for “cage with 1 cage of 3 mice as extra.”, “2B” for “2A”, “(P0)” for “(PO)”
as §3, §4, §5, §6, §7

[6] = test system: IFNγ; assay: Acute LPS-induced sepsis in C57BL/6 mice: IFNγ cytokine detection assay
[7] = test system: TNFα; assay: Acute LPS-induced sepsis in C57BL/6 mice: TNFα cytokine detection assay
Excerpt: FIG. 29 is a graph showing the results of a TNFα cytokine detection assay in samples collected from mouse subjects after administration of compounds of the present disclosure.
as §1
as §2, with “cellulose. […]” for “cellulose.”
(§8) A 32-plex cytokine panel was obtained from Eve Technologies. Each cytokine was assessed based against a 7 point curve range in duplicate. […]

[8] = test system: leukemia inhibitory factor (LIF); assay: Acute LPS-induced sepsis in C57BL/6 mice: leukemia inhibitory factor (LIF) cytokine detection assay
Excerpt: FIG. 21 is a graph showing the results of a leukemia inhibitory factor (LIF) cytokine detection assay in samples collected from mouse subjects after administration of compounds of the present disclosure. LIF is an interleukin 6 class cytokine that affects cell growth by inhibiting differentiation.
as §1, §2
as §2, with “2B, 185” for “2A, 103”, “37” for “20”, “cage.” for “cage with 1 cage of 3 mice as extra.”, “2B” for “2A”, “(P0)” for “(PO)”
as §3, §4, §5, §6, §8

[9] = test system: IL-6; assay: Acute LPS-induced sepsis in C57BL/6 mice: IL-6 cytokine detection assay
Excerpt: FIG. 11 is a graph showing the results of an IL-6 cytokine detection assay in samples collected from mouse subjects after administration of compounds of the present disclosure.
as §1, §2
as §2, with “2B, 185” for “2A, 103”, “37” for “20”, “cage.” for “cage with 1 cage of 3 mice as extra.”, “2B” for “2A”, “(P0)” for “(PO)”
as §3, §4
(§9) At T=6.5 h, all mice were anesthetized and exsanguinated into pre-chilled EDTA-treated tubes. […]
as §8

[10] = test system: IL-13; assay: Acute LPS-induced sepsis in C57BL/6 mice: IL-13 cytokine detection assay
Excerpt: FIG. 17 is a graph showing the results of an IL-13 cytokine detection assay in samples collected from mouse subjects after administration of compounds of the present disclosure.
as §1, §2
as §2, with “2B, 185” for “2A, 103”, “37” for “20”, “cage.” for “cage with 1 cage of 3 mice as extra.”, “2B” for “2A”, “(P0)” for “(PO)”
as §3, §4, §5, §6
A 32-plex cytokine panel was obtained from Eve Technologies. Each cytokine was assessed based against a 7 point curve range in duplicate. The average of the two replicate analyses was used for statistics. […]

[11] = test system: IL-10; assay: Acute LPS-induced sepsis in C57BL/6 mice: IL-10 cytokine detection assay
[12] = test system: IL-1α; assay: Acute LPS-induced sepsis in C57BL/6 mice: IL-1α cytokine detection assay
Excerpt: FIG. 5 is a graph showing the results of an IL-1α cytokine detection assay in samples collected from mouse subjects after administration of compounds of the present disclosure.
as §1, with “Since these processes are the result of interaction between cells of inflammation and organs, investigation of the treatment of this syndrome requires the use of intact animal models. The use of ten mice per group allows useful statistical modelling of the results.” left out
as §8

[13] = test system: IL-17; assay: Acute LPS-induced sepsis in C57BL/6 mice: IL-17 cytokine detection assay
Excerpt: FIG. 19 is a graph showing the results of an IL-17 cytokine detection assay in samples collected from mouse subjects after administration of compounds of the present disclosure.
as §1
as §2, with “The mice were dosed by oral gavage (PO) at 10 ml/kg as per the table below.” left out
as §2, with “2B, 185” for “2A, 103”, “37” for “20”, “cage.” for “cage with 1 cage of 3 mice as extra.”, “2B” for “2A”, “(P0)” for “(PO)”
as §3, §4, §9, §8

[14] = test system: VEGF; assay: Acute LPS-induced sepsis in C57BL/6 mice: VEGF cytokine detection assay
Excerpt: FIG. 30 is a graph showing the results of a VEGF cytokine detection assay in samples collected from mouse subjects after administration of compounds of the present disclosure.
as §1, with “Since these processes are the result of interaction between cells of inflammation and organs, investigation of the treatment of this syndrome requires the use of intact animal models. The use of ten mice per group allows useful statistical modelling of the results.” left out
as §8

[15] = test system: LIX (CXCL5); assay: Acute LPS-induced sepsis in C57BL/6 mice: LIX (CXCL5) cytokine detection assay
Excerpt: FIG. 22 is a graph showing the results of a LIX (CXCL5) cytokine detection assay in samples collected from mouse subjects after administration of compounds of the present disclosure.
as §1, with “Since these processes are the result of interaction between cells of inflammation and organs, investigation of the treatment of this syndrome requires the use of intact animal models. The use of ten mice per group allows useful statistical modelling of the results.” left out
as §8

[16] = test system: IL-3; assay: Acute LPS-induced sepsis in C57BL/6 mice: IL-3 cytokine detection assay
[17] = test system: IL-9; assay: Acute LPS-induced sepsis in C57BL/6 mice: IL-9 cytokine detection assay
Excerpt: FIG. 13 is a graph showing the results of an IL-9 cytokine detection assay in samples collected from mouse subjects after administration of compounds of the present disclosure.
as §1
as §2, with “cellulose. […]” for “cellulose.”
as §8

CC(O)(c1sc2cc(C(F)(F)F)ccc2c1N)C(F)(F)F (centres unmarked) [Compound I-3, 2-(3-amino-6-(trifluoromethyl)benzo[b]thiophen-2-yl)-1,1,1-trifluoropropan-2-ol]
IL-15: significant cytokine change vs. vehicle [1]: ** (Two stars indicates P<0.01) | Eotaxin: significant cytokine change vs. vehicle [2]: ** (Two stars indicates P<0.01) | MCP-1: significant cytokine change vs. vehicle [3]: **** (Four stars indicates P<0.0001) | M-CSF: significant cytokine change vs. vehicle [4]: ** (Two stars indicates P<0.01) | KC: significant cytokine change vs. vehicle [5]: ** (Two stars indicates P<0.01) | IFNy: significant cytokine change vs. vehicle [6]: **** (Four stars indicates P<0.0001) | TNFa: significant cytokine change vs. vehicle [7]: ** (Two stars indicates P<0.01) | LIF: significant cytokine change vs. vehicle [8]: * (One star indicates P<0.05) | IL-6: significant cytokine change vs. vehicle [9]: ** (Two stars indicates P<0.01) | IL-13: significant cytokine change vs. vehicle [10]: *** (Three stars indicates P<0.001) | IL-10: significant cytokine change vs. vehicle [11]: * (One star indicates P<0.05) | IL-1a: significant cytokine change vs. vehicle [12]: *** (Three stars indicates P<0.001) | IL-17: significant cytokine change vs. vehicle [13]: *** (Three stars indicates P<0.001) | VEGF: significant cytokine change vs. vehicle [14]: * (One star indicates P<0.05) | LIX: significant cytokine change vs. vehicle [15]: * (One star indicates P<0.05) | IL-3: significant cytokine change vs. vehicle [16]: **** (Four stars indicates P<0.0001) | IL-9: significant cytokine change vs. vehicle [17]: *** (Three stars indicates P<0.001)
